# Laboratory results published in US9464077B2, “Nitrogen-containing aromatic heterocyclic compound” (Astellas Pharma Inc., priority 2012, dated 2016).
# Legend:
# human recombinant FGFR1 = human recombinant FGFR1 (Homo sapiens, UniProt P11362); assay: FGFR1 enzyme assay (LabChip EZ Reader)
# Protocol: (§2) The compound was diluted with a solution of dimethyl sulfoxide (DMSO) (10-fold common ratio, 4 portions) before dilution with a reaction buffer (100 mM HEPES (pH7.5), 0.003% Brij-35, 0.004% Tween 20, 0.5 mM DTT, and 10 mM MgCl2) so that the final DMSO concentration was 2%. To 4 μL of the compound solution in a 384-well plate, 2 μL each of FGFR1 enzyme (2 or 3 ng/μL), FGFR2 enzyme (2 ng/μL), or FGFR3 enzyme (6 ng/μL) which were diluted with the reaction buffer was added. […] After the reaction was stopped, the reaction mixture was measured with a LabChip EZ Reader. The IC50 values were calculated by non-linear regression based on the inhibition rates obtained.
# human recombinant FGFR3 = human recombinant FGFR3 (Homo sapiens, UniProt P22607); assay: FGFR3 enzyme assay (LabChip EZ Reader)
# Protocol: as §2
# FGFR3_S249C/NIH3T3 cells = assay: Growth assay of cells with forced expression of mutant FGFR3; assay type: cell-based; details: Mus musculus, NIH3T3, 120 h; 5 days after addition, CellTiter-Glo; read-out: IC50 (growth inhibition)
# Protocol: FGFR3_S249C/NIH3T3 cells were added to a 96-well spheroid plate (U bottom) at a concentration of 3000 cells/well/90 μL, and the compound solution (10 μL) was added thereto on the next day (final DMSO concentration: 0.1%). The compound solution was prepared by serially diluting the compound with DMSO at a 3-fold common ratio (9 portions and DMSO only) from the maximum concentration of 10 mM and then diluted 100-fold with a culture medium (D-MEM, 10% FBS). 5 days after the addition of the compound, the growth inhibition caused by the compound was evaluated by Promega (G7573) CellTiter-Glo™ Luminescent Cell Viability Assay.
# [1] = tested on: UM-UC-14 (FGFR3_S249C-positive cells, bladder cancer); assay: Antitumor test on UM-UC-14 subcutaneous xenograft; assay type: in vivo, nude mice; details: oral, once a day; for inhibition in vivo at 1 mg/kg/day / Antitumor Activity, % regression: 1 mg/kg/day; for Antitumor Activity, % regression: tumor volume at Day 11 vs Day 1
# Protocol: 3×10^6 UM-UC-14 cells per 0.1 mL (PBS+matrigel, 1:1) were inoculated subcutaneously into the right flank of nude mice (CAnN, Cg-Foxn1nu/CrlCrlj (nu/nu), male, 4- to 5-week-old), and when their tumor size reached about 250 mm^3, drug administration was started (Day 1). The drug was administered once a day and the tumor size was measured with a caliper and the body weight was also measured every two or three days. The antitumor effect was finally determined based on the tumor volume (mm^3; minor axis (mm)×minor axis (mm)×major axis (mm)/2) at Day 11 (n=3-5). To the control group, 0.5% MC (methyl cellulose) was administered. […] “% regression” indicates what percentage of regression could be achieved compared with the tumor volume at Day 1. Here, the tumor volume at Day 1 means tumor volume immediately before drug administration.
# human recombinant FGFR2 = human recombinant FGFR2 (Homo sapiens, UniProt P21802); assay: FGFR2 enzyme assay (LabChip EZ Reader)
# Protocol: as §2
# [2] = tested on: bladder cancer patient-derived cell line RT-112; assay: Anchorage-independent cell growth inhibition, spheroid plate; assay type: cell-based; details: Homo sapiens, RT-112, 96 h, 4 days, read-out: growth inhibition rate RT-112
# [3] = tested on: bladder cancer patient-derived cell line RT4; assay: as above; assay type: cell-based; details: Homo sapiens, 96 h, 4 days, read-out: growth inhibition rate RT4; for inhibition at 0.001 µM: 1 nM; for inhibition at 0.01 µM: 10 nM; for inhibition at 0.1 µM: 100 nM
# [4] = tested on: FGFR3-TACC3_v3 (N-FLAG) fusion polypeptide; assay: In vitro kinase activity inhibition (HTRF KinEASE-TK); assay type: biochemical, human; details: 100 μM ATP
# [5] = tested on: FGFR3-BAIAP2L1-expressing NIH3T3 cells; assay: Anchorage-independent cell growth inhibition, spheroid plate; assay type: cell-based; details: Mus musculus, NIH3T3, 96 h, 4 days, read-out: growth inhibition rate FGFR3-BAIAP2L1-expressing NIH3T3 Cells; for inhibition at 0.001 µM: 1 nM; for inhibition at 0.01 µM: 10 nM; for inhibition at 0.1 µM: 100 nM
# Protocol: (§1) In a 96-well spheroid plate (Sumilon Celltight Spheroid 96U; Sumitomo Bakelite), FGFR3-BAIAP2L1-expressing NIH3T3 cells were seeded at 1×10^3 cells per well in D-MEM medium containing 10% fetal bovine serum. A well supplemented with only medium was also prepared for a positive control. Culturing was performed overnight in the presence of 5% CO2 at 37° C. followed by addition of test compounds (final concentrations: 100 nM, 10 nM, and 1 nM). As a negative control, DMSO used as a solvent for the compounds was added at the same concentration (0.1%) as in the case of addition of the compounds. Then, culturing was performed in the presence of 5% CO2 at 37° C. for 4 days, and a cell counting reagent (CellTiter-Glo™ Luminescent Cell Viability Assay; Promega) was added and the resulting mixture was stirred for 20 minutes followed by measurement with a luminometer.
# [6] = tested on: FGFR3-TACC3_v4-expressing NIH3T3 cells; assay: as above; assay type: cell-based; details: Mus musculus, NIH3T3, 96 h, 4 days, read-out: growth inhibition rate v4; for inhibition at 0.001 µM: 1 nM; for inhibition at 0.01 µM: 10 nM; for inhibition at 0.1 µM: 100 nM
# Excerpt: Measurement for anchorage-independent cell growth (colony method, etc.) is known to be a system for investigating the anticancer action (pharmacological effect) of compounds (Clinical Oncology, second edition, Cancer and Chemotherapy Publishers Inc.). As a method for measuring the non-adhesive growth of cells, there is the following method using a spheroid plate as referred to above in place of the colony method.
# as §1, with “Bakelite), FGFR3-TACC3_v1-expressing NIH3T3 cells, FGFR3-TACC3_v2-expressing NIH3T3 cells, FGFR3-TACC3_v3-expressing NIH3T3 cells, and FGFR3-TACC3_v4-expressing” for “Bakelite), FGFR3-BAIAP2L1-expressing”, “were each” for “were”, “D-MEM media (Invitrogen)” for “D-MEM medium”, “serum. […]” for “serum.”
# [7] = tested on: FGFR3-TACC3_v2 (N-FLAG) fusion polypeptide; assay: In vitro kinase activity inhibition (HTRF KinEASE-TK); assay type: biochemical, human; details: 100 μM ATP
# [8] = tested on: FGFR3-TACC3_v1 (N-FLAG) fusion polypeptide; assay: as above; assay type: biochemical, human; details: 100 μM ATP
# [9] = Mus musculus, UMUC14, 264 h, tumor volume at Day 11
# Sequence of human recombinant FGFR2 (P21802 22-821): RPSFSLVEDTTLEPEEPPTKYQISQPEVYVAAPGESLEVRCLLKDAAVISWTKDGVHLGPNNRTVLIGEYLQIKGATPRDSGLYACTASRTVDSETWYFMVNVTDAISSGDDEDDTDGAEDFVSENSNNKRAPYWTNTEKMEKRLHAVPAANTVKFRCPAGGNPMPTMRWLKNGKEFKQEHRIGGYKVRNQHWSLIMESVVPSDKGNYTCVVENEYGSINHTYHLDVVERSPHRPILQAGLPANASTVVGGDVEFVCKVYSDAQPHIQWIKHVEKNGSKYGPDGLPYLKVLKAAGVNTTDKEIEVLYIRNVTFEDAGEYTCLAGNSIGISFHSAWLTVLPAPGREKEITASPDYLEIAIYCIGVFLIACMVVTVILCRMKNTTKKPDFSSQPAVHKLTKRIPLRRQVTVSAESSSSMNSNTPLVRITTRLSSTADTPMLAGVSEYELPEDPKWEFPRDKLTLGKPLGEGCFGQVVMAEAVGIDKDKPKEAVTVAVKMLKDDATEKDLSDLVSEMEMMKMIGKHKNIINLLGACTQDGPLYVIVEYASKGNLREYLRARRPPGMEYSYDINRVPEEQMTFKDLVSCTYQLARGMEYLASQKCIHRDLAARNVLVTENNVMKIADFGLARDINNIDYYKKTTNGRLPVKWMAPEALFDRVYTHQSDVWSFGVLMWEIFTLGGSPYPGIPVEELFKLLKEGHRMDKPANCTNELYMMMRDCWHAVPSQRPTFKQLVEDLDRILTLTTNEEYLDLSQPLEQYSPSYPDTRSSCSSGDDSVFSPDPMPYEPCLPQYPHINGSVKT
# Sequence of human recombinant FGFR1 (P11362 22-822): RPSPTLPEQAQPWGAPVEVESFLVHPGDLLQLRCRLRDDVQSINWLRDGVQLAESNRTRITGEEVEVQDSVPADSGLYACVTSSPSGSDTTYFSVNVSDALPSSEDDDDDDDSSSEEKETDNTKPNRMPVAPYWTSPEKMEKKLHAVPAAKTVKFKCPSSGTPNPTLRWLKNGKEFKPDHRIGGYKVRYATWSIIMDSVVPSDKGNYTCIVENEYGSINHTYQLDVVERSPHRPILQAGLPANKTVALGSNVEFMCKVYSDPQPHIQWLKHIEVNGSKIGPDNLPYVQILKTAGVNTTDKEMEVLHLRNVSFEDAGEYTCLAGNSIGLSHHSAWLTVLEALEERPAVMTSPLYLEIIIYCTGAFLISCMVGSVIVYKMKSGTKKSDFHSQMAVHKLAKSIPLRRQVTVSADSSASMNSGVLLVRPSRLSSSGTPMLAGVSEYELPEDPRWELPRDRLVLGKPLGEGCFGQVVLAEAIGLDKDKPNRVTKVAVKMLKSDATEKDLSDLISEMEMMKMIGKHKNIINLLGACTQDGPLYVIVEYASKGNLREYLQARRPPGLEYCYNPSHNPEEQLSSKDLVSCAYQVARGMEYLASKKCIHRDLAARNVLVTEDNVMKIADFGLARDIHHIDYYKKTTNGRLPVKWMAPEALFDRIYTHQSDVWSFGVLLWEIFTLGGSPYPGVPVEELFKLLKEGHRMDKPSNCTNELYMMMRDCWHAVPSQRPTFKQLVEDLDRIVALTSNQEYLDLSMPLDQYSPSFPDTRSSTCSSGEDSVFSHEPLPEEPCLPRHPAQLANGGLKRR
# Sequence of human recombinant FGFR3 (P22607 23-806): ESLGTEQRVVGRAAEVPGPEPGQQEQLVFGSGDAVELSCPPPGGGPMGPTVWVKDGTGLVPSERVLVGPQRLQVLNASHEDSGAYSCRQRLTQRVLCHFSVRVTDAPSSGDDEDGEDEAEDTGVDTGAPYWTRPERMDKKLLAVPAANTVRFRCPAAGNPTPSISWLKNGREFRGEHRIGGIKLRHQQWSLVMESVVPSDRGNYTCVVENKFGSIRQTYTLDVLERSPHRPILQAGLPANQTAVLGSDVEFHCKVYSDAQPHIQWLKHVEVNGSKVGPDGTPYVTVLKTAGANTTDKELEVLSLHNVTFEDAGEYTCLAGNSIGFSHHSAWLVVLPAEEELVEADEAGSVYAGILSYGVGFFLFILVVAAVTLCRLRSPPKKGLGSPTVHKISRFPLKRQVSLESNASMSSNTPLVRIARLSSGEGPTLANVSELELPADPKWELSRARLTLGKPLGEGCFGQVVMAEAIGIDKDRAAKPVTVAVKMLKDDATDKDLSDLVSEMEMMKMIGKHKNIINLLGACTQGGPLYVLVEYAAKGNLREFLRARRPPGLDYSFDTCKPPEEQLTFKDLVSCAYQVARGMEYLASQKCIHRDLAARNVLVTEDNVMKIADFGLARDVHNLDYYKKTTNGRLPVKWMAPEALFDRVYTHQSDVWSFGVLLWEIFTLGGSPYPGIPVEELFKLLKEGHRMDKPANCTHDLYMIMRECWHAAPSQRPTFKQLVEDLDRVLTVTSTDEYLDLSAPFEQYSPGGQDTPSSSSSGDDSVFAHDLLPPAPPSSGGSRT
smiles,measurement,setting,value
COc1cc(Nc2ncc(CCc3c(F)c(OC)cc(OC)c3F)cn2)ccc1N1CCN(C)CC1 [Ex 7],IC50,human recombinant FGFR1,2 nM
COc1cc(OC)c(F)c(COc2cnc(Nc3cnn(C[C@H](O)CO)c3)nc2)c1F [Ex 11],IC50,human recombinant FGFR3,2 nM
same,IC50,FGFR3_S249C/NIH3T3 cells,13 nM
same,IC50,human recombinant FGFR1,1 nM
COc1cc(OC)c(F)c(CCc2cnc(Nc3ccc(N4CCC(N5CCN(C)CC5)CC4)c(F)c3)nc2)c1F [Example 33],IC50,human recombinant FGFR3,2 nM
same,inhibition in vivo at 1 mg/kg/day,[1]; [9],70%
same,IC50,FGFR3_S249C/NIH3T3 cells,26 nM
same,IC50,human recombinant FGFR1,2 nM
COc1cc(Nc2ncc(OCc3c(F)c(OC)cc(OC)c3F)cn2)ccc1N1CCC(N2CCN(C)CC2)CC1 [Example 56],IC50,human recombinant FGFR2,2 nM
same,inhibition at 0.001 µM,[2]; 1 nM,29%
same,inhibition at 0.01 µM,[2]; 10 nM,83%
same,inhibition at 0.1 µM,[2]; 100 nM,90%
same,inhibition at 0.001 µM,[3],5%
same,inhibition at 0.01 µM,[3],42%
same,inhibition at 0.1 µM,[3],64%
same,IC50,human recombinant FGFR1,2 nM
COc1cc(Nc2ncc(OCc3c(F)c(OC)cc(OC)c3F)cn2)ccc1N1CCN(C)CC1 [Example 57],IC50,human recombinant FGFR1,1 nM
COc1cc(OC)c(Cl)c(COc2cnc(Nc3cnn(C4CCN(C)CC4)c3)nc2)c1Cl [Example 71],IC50,human recombinant FGFR3,2 nM
same,inhibition in vivo at 1 mg/kg/day,[1]; [9],50%
same,IC50,FGFR3_S249C/NIH3T3 cells,10 nM
same,IC50,human recombinant FGFR1,2 nM
COc1cc(OC)c(Cl)c(COc2cnc(Nc3cnn(C4CCNCC4)c3)nc2)c1Cl [Example 72],IC50,human recombinant FGFR3,2 nM
same,inhibition in vivo at 1 mg/kg/day,[1]; [9],30%
same,IC50,human recombinant FGFR2,2 nM
same,IC50,FGFR3_S249C/NIH3T3 cells,24 nM
COc1cc(Nc2ncc(OCc3c(F)c(OC)cc(OC)c3F)cn2)ccc1N1CCN(C2CCN(C)CC2)CC1 [Example 84],IC50,human recombinant FGFR3,1 nM
same,"Antitumor Activity, % regression",[1],34%
same,IC50,human recombinant FGFR2,2 nM
same,IC50,FGFR3_S249C/NIH3T3 cells,16 nM
same,IC50,human recombinant FGFR1,2 nM
COc1cc(Nc2ncc(OCc3c(F)c(OC)cc(OC)c3F)cn2)ccc1N1C[C@@H](C)N[C@@H](C)C1 [Example 92],IC50,human recombinant FGFR3,1 nM
same,inhibition in vivo at 1 mg/kg/day,[1]; [9],49%
same,IC50,human recombinant FGFR2,2 nM
same,IC50,FGFR3_S249C/NIH3T3 cells,7 nM
COc1cc(Nc2ncc(OCc3c(F)c(OC)cc(OC)c3F)cn2)ccc1N1CCC2(CCNCC2)CC1 [Example 95],IC50,human recombinant FGFR3,2 nM
same,inhibition in vivo at 3 mg/kg/day,"[1]; Mus musculus, UMUC14, 264 h, 3 mg/kg/day, tumor volume at Day 11",97%
same,IC50,FGFR3_S249C/NIH3T3 cells,57 nM
COc1cc(OC)c(F)c(COc2cnc(Nc3cnn(CCN4CCN(C)CC4)c3)nc2)c1F [Example 114],IC50,human recombinant FGFR3,1 nM
same,"Antitumor Activity, % regression",[1],33%
same,IC50,FGFR3_S249C/NIH3T3 cells,7 nM
same,IC50,human recombinant FGFR1,2 nM
COc1cc(OC)c(F)c(COc2cnc(Nc3cnn(CC(=O)N4CC(O)C4)c3)nc2)c1F [Example 115],IC50,human recombinant FGFR3,2 nM
same,inhibition in vivo at 1 mg/kg/day,[1]; [9],70%
same,IC50,FGFR3_S249C/NIH3T3 cells,36 nM
same,IC50,human recombinant FGFR1,2 nM
COc1cc(OC)c(F)c(COc2cnc(Nc3cnn(C[C@@H](O)CO)c3)nc2)c1F [Example 116],IC50,human recombinant FGFR3,2 nM
same,"Antitumor Activity, % regression",[1],54%
same,rate of inhibiting kinase activity v3,[4]; 1 nM,41%
same,rate of inhibiting kinase activity v3,[4]; 100 nM,96%
same,inhibition at 0.001 µM,[5],15%
same,inhibition at 0.01 µM,[5],74%
same,inhibition at 0.001 µM,[6],11%
same,inhibition at 0.01 µM,[6],70%
same,inhibition at 0.001 µM,[3],8%
same,inhibition at 0.01 µM,[3],39%
same,inhibition at 0.1 µM,[3],63%
same,IC50,FGFR3_S249C/NIH3T3 cells,8 nM
same,IC50,human recombinant FGFR1,1 nM
same,rate of inhibiting kinase activity v2,[7]; 1 nM,22%
same,rate of inhibiting kinase activity v2,[7]; 10 nM,73%
same,rate of inhibiting kinase activity v2,[7]; 100 nM,95%
same,rate of inhibiting kinase activity v1,[8]; 10 nM,79%
same,rate of inhibiting kinase activity v1,[8]; 100 nM,95%
COc1cc(OC)c(F)c(COc2cnc(Nc3ccc(N4CCN(C)CC4)cc3)nc2)c1F [Example 122],IC50,human recombinant FGFR3,2 nM
same,"Antitumor Activity, % regression",[1],15%
same,rate of inhibiting kinase activity v3,[4]; 1 nM,45%
same,rate of inhibiting kinase activity v3,[4]; 10 nM,85%
same,rate of inhibiting kinase activity v3,[4]; 100 nM,97%
same,inhibition at 0.001 µM,[5],17%
same,inhibition at 0.01 µM,[5],83%
same,inhibition at 0.1 µM,[5],90%
same,IC50,human recombinant FGFR2,2 nM
same,inhibition at 0.001 µM,[6],19%
same,inhibition at 0.01 µM,[6],82%
same,inhibition at 0.1 µM,[6],89%
same,inhibition at 0.001 µM,[3],6%
same,inhibition at 0.01 µM,[3],43%
same,inhibition at 0.1 µM,[3],63%
same,IC50,FGFR3_S249C/NIH3T3 cells,7 nM
same,rate of inhibiting kinase activity v2,[7]; 1 nM,27%
same,rate of inhibiting kinase activity v2,[7]; 10 nM,80%
same,rate of inhibiting kinase activity v2,[7]; 100 nM,95%
same,rate of inhibiting kinase activity v1,[8]; 1 nM,34%
same,rate of inhibiting kinase activity v1,[8]; 10 nM,80%
same,rate of inhibiting kinase activity v1,[8]; 100 nM,94%
COc1cc(OC)c(F)c(COc2cnc(Nc3cc(CN4CCN(C)CC4)n(C)n3)nc2)c1F [Example 248],IC50,human recombinant FGFR3,5 nM
same,inhibition in vivo at 1 mg/kg/day,[1]; [9],95%
same,rate of inhibiting kinase activity v3,[4]; 1 nM,30%
same,rate of inhibiting kinase activity v3,[4]; 10 nM,55%
same,rate of inhibiting kinase activity v3,[4]; 100 nM,91%
same,inhibition at 0.001 µM,[5],-3%
same,inhibition at 0.01 µM,[5],19%
same,inhibition at 0.1 µM,[5],82%
same,inhibition at 0.001 µM,[6],-5%
same,inhibition at 0.01 µM,[6],26%
same,inhibition at 0.1 µM,[6],83%
same,inhibition at 0.001 µM,[3],3%
same,inhibition at 0.01 µM,[3],10%
same,inhibition at 0.1 µM,[3],43%
same,IC50,FGFR3_S249C/NIH3T3 cells,50 nM
same,IC50,human recombinant FGFR1,4 nM
same,rate of inhibiting kinase activity v2,[7]; 1 nM,6%
same,rate of inhibiting kinase activity v2,[7]; 10 nM,25%
same,rate of inhibiting kinase activity v2,[7]; 100 nM,78%
same,rate of inhibiting kinase activity v1,[8]; 1 nM,7%
same,rate of inhibiting kinase activity v1,[8]; 10 nM,40%
same,rate of inhibiting kinase activity v1,[8]; 100 nM,86%
